Results from patent US20180311356A1, “METHOD TO INHIBIT ENDOTHELIAL-TO-MESENCHYMAL TRANSITION” (THE CHILDREN'S MEDICAL CENTER CORPORATION, priority 2015, published 2018).

Columns and labels:
mitral VEC [1] = test: EndMT assay with qPCR in TGFβ1-treated mitral VEC clones; assay type: cell-based, Ovine; details: for NFATc1 mRNA / αSMA, Slug, MMP-2, collagen 1, collagen 3, TGFβ1, TGFβ2 and TGFβ3 mRNA levels: inhibitor 0.5 μM during the 4 day TGFβ1 treatment, mitral VEC clones
Procedure: (§1) Ovine mitral VEC and CAEC were plated at 10,000 cells/cm^2 on gelatin-coated dishes. After 24 hours, EBM-B was replaced with fresh EBM-B containing 1 ng/ml human TGFβ1 (R&D Systems, MN, USA). Cells were harvested with Liberase ([…]) 96 hours later, and used for flow cytometry. Cells were analyzed simultaneously for VE-cadherin, α-SMA and CD45 by flow cytometry as described above.
(§2) Total cellular RNA was extracted from mitral VEC clones (C5, D1, E5, E10 and E10-2) and CAEC (n=2) with an RNeasy Micro extraction kit (Qiagen, Valencia, Calif., #74004). Reverse transcriptase reactions were performed using an iScript cDNA Synthesis Kit (Bio-Rad, CA, USA #170-8890). qPCR was performed using Kapa Sybr Fast ABI Prism 2×qPCR Master Mix (KAPA BioSystems, MA, USA # KK4604). Amplification was carried out in an ABI 7500 (Applied Biosystems, Foster City, Calif.). A standard curve for each gene was generated to determine amplification efficiency. RPS9 was used as housekeeping gene expression reference. Fold increases in gene expression were calculated according to 2 delta Ct method^28,29, with each amplification reaction performed in triplicate.

mitral VEC [2] = test: Cellular migration assay (Transwell), mitral VEC clones; assay type: cell-based, Ovine; details: for EndMT-increased migration towards serum and bFGF: TGFβ-treated mitral VEC clones (n=3), inhibitor 1.0 μM 30 min before and during 6 hour assay
Procedure: (§3) The lower chambers contained 0.1% BSA/EBM-2 media alone or EBM with serum and basic FGF as a chemoattractants. Cells were allowed to migrate for 6 hours at 37° C. (FIG. 6) Cells that migrated through the pores were fixed with methanol and stained with Eosin-Y, Azure A and Methylene Blue for visualization and quantification using Three Step Stain Set (VWR, PA, USA #48218-567).

[3] = tested on: carotid artery endothelial cells (CAEC); test: EndMT assay with qPCR in TGFβ1-treated CAEC; assay type: cell-based, Ovine; details: for EndMT and fibrosis marker mRNA in CAEC: presence or absence of inhibitor
Procedure: as §1, §2

[4] = tested on: carotid artery endothelial cells (CAEC); test: Cellular migration assay (Transwell), CAEC; assay type: cell-based, Ovine; details: 6 hour assay; for Migration of CAEC, response to inhibitor: control and TGFβ1-treated CAEC, inhibitor 1.0 μM
Procedure: as §3

TGF-β = details: cited from earlier work
[5] = tested on: early stage diffuse cutaneous systemic sclerosis; details: cited from earlier work
[6] = tested on: carotid artery endothelial cells (CAEC); test: EndMT assay with flow cytometry, CAEC; assay type: cell-based, Ovine; details: TGFβ-treated and non-treated CAECs
Procedure: (§4) Ovine MVs were minced and digested for 30 minutes at 37° C. with Liberase (Roche Diagnostics, IN, USA, #5401119001), a blend of purified collagenases I and II. Isolated cells were fixed using Flow Cytometry Fixation Buffer (R&D Systems, MN, USA, #FC004) and labeled in Flow Cytometry Permeabilization/Wash Buffer I (R&D Systems, MN, USA, #FC005) for 45 minutes (100,000 cells/100 μl Buffer I). Murine anti-human CD45-FITC or -APC (1:50; AbD Serotec, NC, USA, # MCA2220F and #559864), VE-cadherin-PE or -FITC (1:100; R&D Systems, MN, USA, # FAB9381P and AbD Serotec, NC, USA, # AHP628F), and α-smooth muscle actin (αSMA)-APC or -PE (1:100; R&D Systems, MN, USA, # IC1420P and # IC1420A) were used.
as §1

mitral VEC [7] = test: EndMT assay with flow cytometry, mitral VEC clones; assay type: cell-based, Ovine
Procedure: as §4, §1

TGF-beta2 = target: T1, TGF-beta2 (Homo sapiens, UniProt P61812); details: cited from earlier work
T1 sequence (P61812 303-414 limits assumed): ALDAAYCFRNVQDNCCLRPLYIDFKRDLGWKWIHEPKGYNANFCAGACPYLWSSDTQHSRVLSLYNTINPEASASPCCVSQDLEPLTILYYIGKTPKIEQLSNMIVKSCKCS

[8] = tested on: scarring after glaucoma surgery; details: rabbits; cited from earlier work
scar formation = details: first clinical trials; intractable glaucoma patients, trabeculectomy; cited from earlier work
TGF-beta3 = target: T2, TGF-beta3 (Homo sapiens, UniProt P10600); details: cited from earlier work
T2 sequence (P10600 301-412 limits assumed): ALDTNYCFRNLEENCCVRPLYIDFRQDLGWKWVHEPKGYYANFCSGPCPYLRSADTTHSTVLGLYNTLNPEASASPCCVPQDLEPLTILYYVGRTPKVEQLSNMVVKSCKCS

[9] = qPCR, listed as CD45 phosphatase inhibitor
[10] = listed as CD45 phosphatase inhibitor

CC(C)(C)C(=O)Nc1ccc2c(c1)C(=O)C(=O)c1ccccc1-2 [CD45 PTPase inhibitor, N-(9,10-dioxo-9,10-dihydro-phenanthren-2-yl)-2,2-dimethyl propionamide]
NFATc1 mRNA (mitral VEC [1]; qPCR): restored | αSMA, Slug, MMP-2, collagen 1, collagen 3, TGFβ1, TGFβ2 and TGFβ3 mRNA levels (mitral VEC [1]; qPCR): significantly reduced | NFATc1 mRNA (mitral VEC [1]; [9]): blocks the decrease | αSMA, Slug, MMP-2, collagen 1, collagen 3, TGFβ1, TGFβ2 and TGFβ3 mRNA levels (mitral VEC [1]; [9]): reduces | induction of 7 EndMT/fibrosis markers (α-SMA, Slug, MMP2, NFATc1, TGFβ2, collagen 1 and collagen 3) (mitral VEC [1]; summary statement): blocks | EndMT-increased migration towards serum and bFGF (mitral VEC [2]): significantly inhibited | EndMT-increased migration towards serum and bFGF (mitral VEC [2]; [10]): specifically blocks | EndMT and fibrosis marker mRNA in CAEC [3]: no changes | EndMT and fibrosis marker mRNA in CAEC [3, 10]: no effect | Migration of CAEC, response to inhibitor [4]: no response | Migration of CAEC, response to inhibitor [4, 10]: no effect

Cc1ccc(=O)n(-c2ccccc2)c1 [Pirfenidone, 5-methyl-1-phenyl-2(1H)-pyridone]
TGF-β promoter activity, TGF-β protein secretion, TGF-β-induced Smad2 phosphorylation and generation of reactive oxygen species (TGF-β): reduces

CAT-192: a TGF-β1 neutralizing antibody
adverse events ([5]; in vivo): more adverse events | effect on early stage diffuse cutaneous systemic sclerosis ([5]; phase I/II trial NCT00043706): did not show effect

TGFβ1: human TGFβ1 (R&D Systems), used at 1 ng/ml to induce EndMT
Collagen 1, collagen 3, TGFβ1, TGFβ2 and TGFβ3 mRNA transcripts (mitral VEC [1]; TGFβ1-treated mitral VEC clones, qPCR): increased | Slug, MMP2 and NFATc1 mRNA (mitral VEC [1]; TGFβ1-treated mitral VEC, qPCR): modulated as expected | CD45 and αSMA mRNA (mitral VEC [1]; five mitral VEC clones, TGFβ1 4 days, qPCR): significant increases | migration towards serum and bFGF after TGFβ treatment (mitral VEC [2]; mitral VEC clones (n=3), TGFβ1 4 days, 6 hour assay): significantly increased | CD45 or αSMA expression in CAEC, flow cytometry [6]: did not express | α-SMA, flow cytometry (mitral VEC [7]; TGFβ1-treated mitral VEC clones): significantly increased | CD11b and CD14 expression, flow cytometry (mitral VEC [7]; TGFβ1-treated mitral VEC, data not shown): No expression was detected | cells positive for CD45 (mitral VEC [7]; four additional mitral VEC clones treated with TGFβ1 1 ng/ml 96 hours): 19-88% | CD45 and αSMA expression, flow cytometry (mitral VEC [7]; mitral VEC clone E10, 1 ng/ml TGFβ1, 96 hours): strong induction | CD45, flow cytometry (mitral VEC [7]; seven mitral VEC clones, 4 day exposure to TGFβ1): significantly increased | CD45, VE-cadherin or αSMA mRNA levels in CAEC [3]: No changes | migration of CAEC after TGFβ treatment ([4]; CAEC): no increase

B1: CAT-152: fully human TGF-beta2 neutralizing antibody (antibody, chains of the INN, looked up, V domains shown)
VH: EVQLVESGGGVVQPGRSLRLSCAASGFTFSSYGMHWVRQAPGKGLEWVAVIWYDGSNKYYADSVKGRFTISRDNSKNTLYLQMDSLRAEDTAVYYCGRTLESSLWGQGTLVTVSS
VL: SSELTQDPAVSVALGQTVRITCQGDSLRSYYASWYQQKPGQAPVLVIYGKNNRPSGIPDRFSGSSSGNTASLTITGAQAEDEADYYCNSRDSSSTHRGVFGGGTKLTVL
affinity for TGF-beta2 (TGF-beta2): high affinity | scarring after glaucoma surgery [8]: capable of inhibiting | scar formation (scar formation): possible effects | affinity for TGF-beta3 (TGF-beta3): lower affinity
